Data: patent US20250107544A1, “4-(3-OXO-2-(PENT-2-ENYL)CYCLOPENTYL) BUTANOIC ACID MIXTURES AND USES THEREOF” (Valent BioSciences LLC., priority 2023, published 2025)

How the values were obtained:
[1] = system: unripened apples, Pink Lady variety; assay: Apple coloration in Pink Lady variety (Example 1), percent red pixel area after foliar spray; type: in vivo; conditions: for Average % Red Pixel Area: 34 hours post spray; for % change from control: vs 0.05% Regulaid control
From the text: 10 sets of unripened apples, Pink Lady variety, harvested three weeks before the normal harvest date, were each foliar sprayed with either 1) 0.05% Regulaid® as a control, 2) 30 ppm OPC4, 3) 100 ppm OPC4, 4) 300 ppm OPC4, 5) 1,000 ppm OPC4, 6) 50 ppm ACC, 7) 50 ppm jasmonic acid, 8) a mixture of 30 ppm OPC4 and 50 ppm ACC, 9) a mixture of 100 ppm OPC4 and 50 ppm ACC, 10) a mixture of 300 ppm OPC4 and 50 ppm ACC, 11) a mixture of 1,000 ppm OPC4 and 50 ppm ACC, 12) a mixture of 30 ppm OPC4 and 50 ppm jasmonic acid, 13) a mixture of 100 ppm OPC4 and 50 ppm jasmonic acid, 14) a mixture of 300 ppm OPC4 and 50 ppm jasmonic acid, 15) a mixture of 1,000 ppm OPC4 and 50 ppm jasmonic acid. 34 hours post spray application percent red pixel area (shaded) was measured. Percent red pixel area is an indication of the coloration of the apple fruit.
(§1) To determine if the mixture provided unexpected results, the observed combined efficacy (“OCE”) was divided by the expected combined efficacy (“ECE”) wherein the ECE is calculated by the Abbott method: […]
(§2) wherein ECE is the expected combined efficacy and in which A and B are the percent change from control given by the single active ingredients. If the ratio between the OCE of the mixture and the ECE of the mixture is greater than 1, then greater than expected interactions are present in the mixture. (Gisi, Synergistic Interaction of Fungicides in Mixtures, The American Phytopathological Society, 86:11, 1273-1279,1996).

[2] = system: unripened apples, Pink Lady variety; assay: Apple coloration in Pink Lady variety (Example 2), percent red pixel area after foliar spray; type: in vivo; conditions: for Average % Red Pixel Area: 34 hours post spray; for % change from control: vs 0.05% Regulaid control
Procedure: as §1, §2
10 sets of unripened apples, Pink Lady variety, harvested three weeks before the normal harvest date, were each foliar sprayed with either 1) 0.05% Regulaid® as a control, 2) 10 ppm OPC4, 3) 100 ppm OPC4, 4) 100 ppm ACC, 5) 100 ppm jasmonic acid, 6) a mixture of 10 ppm OPC4 and 100 ppm ACC, 7) a mixture of 100 ppm OPC4 and 100 ppm ACC, 8) a mixture of 10 ppm OPC4 and 100 ppm jasmonic acid and 9) a mixture of 100 ppm OPC4 and 100 ppm jasmonic acid. 34 hours post spray application percent red pixel area (shaded) was measured. Percent red pixel area is an indication of the coloration of the apple fruit.

SMILES	Average % Red Pixel Area ([1]; 50 ppm foliar spray) [%]	% change from control ([1]; 50 ppm foliar spray) [%]	Average % Red Pixel Area ([2]; 100 ppm foliar spray) [%]	% change from control ([2]; 100 ppm foliar spray) [%]	Average % Red Pixel Area ([1]; 30 ppm foliar spray) [%]	% change from control ([1]; 30 ppm foliar spray) [%]	Average % Red Pixel Area ([1]; 100 ppm foliar spray) [%]	% change from control ([1]; 100 ppm foliar spray) [%]	Average % Red Pixel Area ([1]; 300 ppm foliar spray) [%]	% change from control ([1]; 300 ppm foliar spray) [%]	Average % Red Pixel Area ([1]; 1000 ppm foliar spray) [%]	% change from control ([1]; 1000 ppm foliar spray) [%]	Average % Red Pixel Area ([2]; 10 ppm foliar spray) [%]	% change from control ([2]; 10 ppm foliar spray) [%]
CC/C=C\C[C@H]1C(=O)CC[C@@H]1CC(=O)O [JA, jasmonic acid, reference compound]	39.64	4.22	49.9	1.06	–	–	–	–	–	–	–	–	–	–
NC1(C(=O)O)CC1 [ACC, 1-amino-1-cyclopropanecarboxylic acid, reference compound]	9.33	0.23	19.32	−0.20	–	–	–	–	–	–	–	–	–	–
CCC=CCC1C(=O)CCC1CCCC(=O)O (centres unmarked) [OPC4, 4-(3-oxo-2-(pent-2-enyl)cyclopentyl) butanoic acid]	–	–	43.59	0.80	13.37	0.76	36.02	3.74	65.59	7.63	54.35	6.15	18.85	−0.22
